Assay results: US6737383B1, “Herbicidal oxadiazolidines” (priority 1999, dated 2004)

Key:
surinam grass = test: Test B pre/postemergence surinam grass; format: in vivo, Brachiaria decumbens
In short: (§1)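 Test chemicals in a non-phytotoxic solvent mixture with surfactant were sprayed preemergence onto planted seeds and postemergence onto plants 2 to 18 cm tall (1- to 4-leaf stage). After twelve to sixteen days in a greenhouse, injury was visually rated against untreated controls from 0 (no effect) to 10 (complete control).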

duck salad = test: Test B flood test duck salad; format: in vivo, Heteranthera limosa
In short: (§2)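 Read-out is a visual response score from 0 (no effect) to 10 (complete control), assigned by comparison with untreated controls. Treatment was applied at the 2-leaf stage, and plants stayed in the greenhouse for twelve to sixteen days before scoring.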

blackgrass = test: Test B pre/postemergence blackgrass; format: in vivo, Alopecurus myosuroides
In short: as §1

giant foxtail = test: Test B pre/postemergence giant foxtail; format: in vivo, Setaria faberii; settings: for Giant foxtail plant response rating: scale of 0 to 10 where 0 is no effect and 10 is complete control
In short: as §1

morningglory = test: Test B pre/postemergence morningglory; format: in vivo, Ipomoea hederacea; settings: for Morningglory plant response rating: scale of 0 to 10 where 0 is no effect and 10 is complete control
In short: as §1

rice = test: Test B flood test rice; format: in vivo, Oryza sativa
In short: as §2

sugar beet = test: Test B pre/postemergence sugar beet; format: in vivo, Beta vulgaris; settings: for Sugarbeets plant response rating: scale of 0 to 10 where 0 is no effect and 10 is complete control
In short: as §1

crabgrass = test: Test B pre/postemergence crabgrass; format: in vivo, Digitaria sanguinalis; settings: for Crabgrass plant response rating: scale of 0 to 10 where 0 is no effect and 10 is complete control
In short: as §1

rape = test: Test B pre/postemergence rape; format: in vivo, Brassica napus; settings: for Rape plant response rating: scale of 0 to 10 where 0 is no effect and 10 is complete control
In short: as §1

velvetleaf = test: Test B pre/postemergence velvetleaf; format: in vivo, Abutilon theophrasti; settings: for Velvetleaf plant response rating: scale of 0 to 10 where 0 is no effect and 10 is complete control
In short: as §1

corn = test: Test B pre/postemergence corn; format: in vivo, Zea mays; settings: for Corn plant response rating: scale of 0 to 10 where 0 is no effect and 10 is complete control
In short: as §1

wheat = test: Test B pre/postemergence wheat; format: in vivo, Triticum aestivum; settings: for Wheat plant response rating: scale of 0 to 10 where 0 is no effect and 10 is complete control
In short: as §1

pigweed = test: Test B pre/postemergence pigweed; format: in vivo, Amaranthus retroflexus; settings: for Redroot pigweed plant response rating: scale of 0 to 10 where 0 is no effect and 10 is complete control
In short: as §1

cocklebur = test: Test B pre/postemergence cocklebur; format: in vivo, Xanthium strumarium; settings: for Cocklebur plant response rating: scale of 0 to 10 where 0 is no effect and 10 is complete control
In short: as §1

smallflower flatsedge = test: Test B flood test smallflower flatsedge; format: in vivo, Cyperus difformis
In short: as §2

purple nutsedge = test: Test B pre/postemergence purple nutsedge; format: in vivo, Cyperus rotundus; settings: for Nutsedge plant response rating: scale of 0 to 10 where 0 is no effect and 10 is complete control
In short: as §1

[1] = Postemergence, Rate 125 g/ha, scale 0 to 10, 0 is no effect, 10 is complete control
[2] = Preemergence, Rate 62 g/ha, scale 0 to 10 (0 no effect, 10 complete control)
[3] = Preemergence, Rate 250 g/ha, scale of 0 to 10 where 0 is no effect and 10 is complete control
[4] = Preemergence, Rate 500 g/ha, scale of 0 to 10 where 0 is no effect and 10 is complete control
[5] = Rate 62 g/ha, Postemergence, scale of 0 to 10 where 0 is no effect and 10 is complete control
[6] = Rate 250 g/ha, Postemergence, scale of 0 to 10 where 0 is no effect and 10 is complete control
[7] = Rate 500 g/ha, Postemergence, scale 0 to 10, 0 no effect, 10 complete control
[8] = Postemergence (flood test), Rate 125 g/ha, scale 0 to 10, 0 is no effect, 10 is complete control
[9] = Rate 62 g/ha, Postemergence (flood test species), scale of 0 to 10 where 0 is no effect and 10 is complete control
[10] = Rate 62 g/ha, flood test species, Pre-emergence, visual evaluation after twelve to sixteen days
[11] = Rate 125 g/ha, Pre-emergence, flood test species, scale 0 to 10 where 0 is no effect and 10 is complete control
[12] = Rate 250 g/ha, Pre-emergence, flood-test species, scale 0 to 10, 0 is no effect, 10 is complete control
[13] = Rate 500 g/ha, Pre-emergence, flood test species, scale 0 to 10 (0 no effect, 10 complete control)

SMILES: CCC(CC)n1c(=O)on(C(=O)N(c2ccc(F)cc2)C(C)C)c1=O [Compound 358]
- Plant response rating, B. signalgrass (surinam grass; [1]): 0
- Plant response rating, B. signalgrass (surinam grass; [2]): 1
- B. signalgrass plant response rating (0 to 10 scale, 0 is no effect, 10 is complete control) (surinam grass; Preemergence, Rate 125 g/ha): 3
- B. signalgrass plant response rating (surinam grass; [3]): 5
- B. signalgrass plant response rating (surinam grass; [4]): 7
- B. signalgrass plant response rating (surinam grass; [5]): 0
- Plant response rating, B. signalgrass (surinam grass; [6]): 1
- Plant response rating, B. signalgrass (surinam grass; [7]): 2
- Plant response rating, Ducksalad (duck salad; [8]): 2
- Ducksalad plant response rating (duck salad; [9]): 0
- Plant response rating, Ducksalad (0 to 10 scale, 0 is no effect, 10 is complete control) (duck salad; [10]): 0
- Ducksalad plant response rating (duck salad; [11]): 0
- Ducksalad plant response rating (duck salad; [12]): 0
- Ducksalad plant response rating (duck salad; [13]): 2
- Plant response rating, Blackgrass (blackgrass; [1]): 6
- Plant response rating, Blackgrass (blackgrass; [2]): 4
- Blackgrass plant response rating (0 to 10 scale) (blackgrass; Preemergence, Rate 125 g/ha): 8
- Blackgrass plant response rating (blackgrass; [3]): 10
- Blackgrass plant response rating (blackgrass; [4]): 10
- Blackgrass plant response rating (blackgrass; [5]): 2
- Plant response rating, Blackgrass (blackgrass; [6]): 8
- Plant response rating, Blackgrass (blackgrass; [7]): 8
- Plant response rating, Giant foxtail (giant foxtail; [1]): 8
- Plant response rating, Giant foxtail (giant foxtail; [2]): 10
- Giant foxtail plant response rating (0 to 10 scale) (giant foxtail; Preemergence, Rate 125 g/ha): 10
- Giant foxtail plant response rating (giant foxtail; Preemergence, Rate 250 g/ha): 10
- Giant foxtail plant response rating (giant foxtail; Preemergence, Rate 500 g/ha): 10
- Giant foxtail plant response rating (giant foxtail; Rate 62 g/ha, Postemergence): 3
- Plant response rating, Giant foxtail (giant foxtail; [7]): 8
- Plant response rating, Morningglory (morningglory; [1]): 5
- Plant response rating, Morningglory (morningglory; [2]): 0
- Morningglory plant response rating (0 to 10 scale) (morningglory; Preemergence, Rate 125 g/ha): 0
- Morningglory plant response rating (morningglory; Preemergence, Rate 250 g/ha): 3
- Morningglory plant response rating (morningglory; Preemergence, Rate 500 g/ha): 5
- Morningglory plant response rating (morningglory; Rate 62 g/ha, Postemergence): 3
- Plant response rating, Morningglory (morningglory; [7]): 7
- Plant response rating, Rice (rice; [8]): 0
- Rice plant response rating (rice; [9]): 0
- Plant response rating, Rice (0 to 10 scale, 0 is no effect, 10 is complete control) (rice; [10]): 0
- Rice plant response rating (rice; [11]): 0
- Rice plant response rating (rice; [12]): 0
- Plant response rating, Rice (rice; Rate 500 g/ha, listed under Postemergence (flood test species), scale 0 to 10, 0 no effect, 10 complete control): 0
- Rice plant response rating (rice; [13]): 8
- Plant response rating, Sugarbeets (sugar beet; [1]): 0
- Plant response rating, Sugarbeets (sugar beet; [2]): 0
- Sugarbeets plant response rating (0 to 10 scale) (sugar beet; Preemergence, Rate 125 g/ha): 1
- Sugarbeets plant response rating (sugar beet; Preemergence, Rate 250 g/ha): 3
- Sugarbeets plant response rating (sugar beet; Preemergence, Rate 500 g/ha): 3
- Sugarbeets plant response rating (sugar beet; Rate 62 g/ha, Postemergence): 0
- Plant response rating, Sugarbeets (sugar beet; [7]): 4
- Plant response rating, Crabgrass (crabgrass; [1]): 0
- Plant response rating, Crabgrass (crabgrass; [2]): 9
- Crabgrass plant response rating (0 to 10 scale) (crabgrass; Preemergence, Rate 125 g/ha): 10
- Crabgrass plant response rating (crabgrass; Preemergence, Rate 250 g/ha): 10
- Crabgrass plant response rating (crabgrass; Preemergence, Rate 500 g/ha): 10
- Crabgrass plant response rating (crabgrass; Rate 62 g/ha, Postemergence): 0
- Plant response rating, Crabgrass (crabgrass; [7]): 7
- Plant response rating, Rape (rape; [1]): 1
- Plant response rating, Rape (rape; [2]): 0
- Rape plant response rating (0 to 10 scale) (rape; Preemergence, Rate 125 g/ha): 0
- Rape plant response rating (rape; Preemergence, Rate 250 g/ha): 4
- Rape plant response rating (rape; Preemergence, Rate 500 g/ha): 4
- Rape plant response rating (rape; Rate 62 g/ha, Postemergence): 1
- Plant response rating, Rape (rape; [7]): 4
- Plant response rating, Velvetleaf (velvetleaf; [1]): 2
- Plant response rating, Velvetleaf (velvetleaf; [2]): 3
- Velvetleaf plant response rating (0 to 10 scale) (velvetleaf; Preemergence, Rate 125 g/ha): 4
- Velvetleaf plant response rating (velvetleaf; Preemergence, Rate 250 g/ha): 5
- Velvetleaf plant response rating (velvetleaf; Preemergence, Rate 500 g/ha): 8
- Velvetleaf plant response rating (velvetleaf; Rate 62 g/ha, Postemergence): 2
- Plant response rating, Velvetleaf (velvetleaf; [7]): 3
- Plant response rating, Corn (corn; [1]): 0
- Plant response rating, Corn (corn; [2]): 0
- Corn plant response rating (0 to 10 scale) (corn; Preemergence, Rate 125 g/ha): 0
- Corn plant response rating (corn; Preemergence, Rate 250 g/ha): 2
- Corn plant response rating (corn; Preemergence, Rate 500 g/ha): 6
- Corn plant response rating (corn; Rate 62 g/ha, Postemergence): 0
- Plant response rating, Corn (corn; [7]): 0
- Plant response rating, Wheat (wheat; [1]): 3
- Plant response rating, Wheat (wheat; [2]): 0
- Wheat plant response rating (0 to 10 scale) (wheat; Preemergence, Rate 125 g/ha): 0
- Wheat plant response rating (wheat; Preemergence, Rate 250 g/ha): 1
- Wheat plant response rating (wheat; Preemergence, Rate 500 g/ha): 3
- Wheat plant response rating (wheat; Rate 62 g/ha, Postemergence): 2
- Plant response rating, Wheat (wheat; [7]): 5
- Plant response rating, Redroot pigweed (pigweed; [1]): 3
- Plant response rating, Redroot pigweed (pigweed; [2]): 7
- Redroot pigweed plant response rating (0 to 10 scale) (pigweed; Preemergence, Rate 125 g/ha): 9
- Redroot pigweed plant response rating (pigweed; Preemergence, Rate 250 g/ha): 10
- Redroot pigweed plant response rating (pigweed; Preemergence, Rate 500 g/ha): 10
- Redroot pigweed plant response rating (pigweed; Rate 62 g/ha, Postemergence): 3
- Plant response rating, Redroot pigweed (pigweed; [7]): 6
- Plant response rating, Cocklebur (cocklebur; [1]): 0
- Plant response rating, Cocklebur (cocklebur; [2]): 0
- Cocklebur plant response rating (0 to 10 scale) (cocklebur; Preemergence, Rate 125 g/ha): 0
- Cocklebur plant response rating (cocklebur; Preemergence, Rate 250 g/ha): 0
- Cocklebur plant response rating (cocklebur; Preemergence, Rate 500 g/ha): 0
- Cocklebur plant response rating (cocklebur; Rate 62 g/ha, Postemergence): 0
- Plant response rating, Cocklebur (cocklebur; [7]): 0
- Plant response rating, S. Flatsedge (smallflower flatsedge; [8]): 0
- S. Flatsedge plant response rating (smallflower flatsedge; [9]): 0
- Plant response rating, S. Flatsedge (0 to 10 scale, 0 is no effect, 10 is complete control) (smallflower flatsedge; [10]): 0
- S. Flatsedge plant response rating (smallflower flatsedge; [11]): 6
- S. Flatsedge plant response rating (smallflower flatsedge; [12]): 8
- S. Flatsedge plant response rating (smallflower flatsedge; [13]): 8
- Plant response rating, Nutsedge (purple nutsedge; [1]): 0
- Plant response rating, Nutsedge (purple nutsedge; [2]): 0
- Nutsedge plant response rating (0 to 10 scale) (purple nutsedge; Preemergence, Rate 125 g/ha): 0
- Nutsedge plant response rating (purple nutsedge; Preemergence, Rate 250 g/ha): 0
- Nutsedge plant response rating (purple nutsedge; Preemergence, Rate 500 g/ha): 0
- Nutsedge plant response rating (purple nutsedge; Rate 62 g/ha, Postemergence): 0
- Plant response rating, Nutsedge (purple nutsedge; [7]): 0
